In patent US9995734B2, “Human T cell line assay for evaluating the immunologic identity of glatiramer acetate preparations” (Mylan Inc., priority 2013, dated 2018):

Test system: Donor 1 Human T-Cell Lines (GMA-stimulated)
Assay: BrdU uptake proliferation assay, Donor 1 T-cell lines initially stimulated with GMA
Assay type: cell-based
Settings: 10 μg/mL GMA
Protocol: Proliferation was evaluated by measuring ATP content using a luminescent method (CellTiter Glo Luminescent Cell Viability Assay, Promega, Madison, Wis., cat. #G7571) or by measuring BrdU uptake by ELISA (Millipore cat. #2752), in both cases following kit instructions. A split well format was used. Cells in each well were resuspended and 65 μl transferred to the wells of each of two new U-bottom 96-well plates, to generate the replicate plates. For the initial screening, the original 96-well plate received mitomycin-treated autologous PBMC as APC plus 10 μg/mL antigen (GA). A first replicate plate received 100 μl., mitomycin-treated PBMC alone (2×10^5), and no antigen, and a second replicate plate received 100 μL mitomycin-treated PBMC plus GA at a final concentration of 10 μg/mL. Therefore, all three plates received autologous APC (PBMC) treated with mitomycin C to prevent cell division. […] The latter two plates were incubated for 3 days at 37° C., 6% CO2 before adding CellTiter Glo or BrdU and measuring signal. IL-2 was added at 10 U/mL to the original 96-well plate for expansion on Day 17. For subsequent screenings, mitomycin-treated EBV-transformed autologous B-LCL (2×10^5 to 5×10^5 cells/mL) were used as APC.
GMA-responsive cell lines were obtained from Donor 1 PBMC as described above (2×10^5 cells/well, i.e., 1×10^6 cells/mL, plated with 10 μg/mL GMA; IL-2 added on Days 3 and 7). In a split well assay begun on Day 12 the cells were stimulated with 10 μg/mL GMA and 1×10^5 mitomycin-treated autologous PBMC as APC. BrdU was added on Day 3, cells were incubated 4.5 hours and fixed, and uptake measured. […] These cell lines each produced an increase in signal of at least 50% relative to (no antigen) control.

glatiramer acetate [GMA] showed a BrdU uptake (222-AC11, control 0.680) of 1.244 OD450, a BrdU uptake (222-AF2, control 0.454) of 1.119 OD450 and a BrdU uptake (222-AF5, control 0.606) of 1.133 OD450. For the same substance, the BrdU uptake (222-AG11, control 0.359) was 0.875 OD450, the BrdU uptake (222-AG12, control 0.448) was 0.949 OD450 and the BrdU uptake (222-BA4, control 0.370) was 0.603 OD450. For the same substance, the BrdU uptake (222-BA11, control 0.255) was 0.783 OD450, the BrdU uptake (222-BC11, control 0.499) was 0.921 OD450 and the “increase in signal relative to (no antigen) control” value (eight Donor 1 cell lines of Table 4) was “at least 50%”.
